Source: article PMC8952293, “A Histone Deacetylase (HDAC) Inhibitor with Pleiotropic In Vitro Anti-Toxoplasma and Anti-Plasmodium Activities Controls Acute and Chronic Toxoplasma Infection in Mice” (International Journal of Molecular Sciences, 2022)

Assays:
Huh7 cells = assay: Host cell viability (cell confluency, AlamarBlue) in the hepatic infection assay; type: cell-based, human; conditions: at the tested concentrations (up to 500 nM)
Protocol: Liver stage. The action of JF363 against the liver stage of P. berghei infection was assessed by bioluminescence, as previously described. Briefly, one day before infection, Huh7 cells were seeded in 96-well plates. JF363 stock solution was prepared in dimethyl sulfoxide (DMSO) and serially diluted in infection medium (culture medium supplemented with 50 µg/mL of gentamicin and 0.8 µg/mL of fungizone) to obtain the test concentrations (1, 10, 25, 50, […], 500 nM). These were added to the cells and incubated for 1 h at 37 °C and 5% CO2, after which 1 × 10^4 sporozoites were added to the wells. Plates were centrifuged at 1800× g for 5 min and incubated at 37 °C with 5% CO2 for the assay duration. At 46 h post-infection, the impact of the compound on cell viability was assessed by the AlamarBlue assay (Invitrogen, Carlsbad, CA, USA), following the manufacturer’s instructions. Following the manufacturer’s instructions, the drug’s effect on the parasite load was next evaluated using the Firefly Luciferase Assay Kit 2.0 (Biotium, Fremont, CA, USA). For IC50 determination, nonlinear regression analysis was employed to fit the normalized results of the dose–response curves, using GraphPad Prism 8 (Prism 4 for Mac OS X, version 5.0b, San Diego, CA, USA).

P. falciparum NF54 = assay: In vitro P. falciparum erythrocytic infection (SYBR green I flow cytometry); type: cell-based; conditions: Plasmodium falciparum, PfNF54 blood stage, 48 h, three independent experiments
Protocol: Blood stage. Ring-stage synchronized cultures of PfNF54 at 2.5% hematocrit and at approximately 1% parasitemia were incubated with drugs or DMSO (vehicle control) in 96-well plates, for 48 h, at 37 °C in a 5% CO2 and 5% O2 atmosphere. The stock solution of JF363 was prepared in DMSO. Working solutions (1, 10, 100, 200, 500, 1000, 2000 nM) were prepared from the stock solution in a complete malaria culture medium (CMCM), which consisted of RPMI 1640 supplemented with 25 mM HEPES, 2.4 mM L-glutamine, 50 μg/mL gentamicin, 0.5% w/v AlbuMAX (Gibco BRL), 11 mM glucose, 1.47 mM hypoxanthine, and 37.3 mM NaHCO3. Five microliters of the culture (approximately 800,000 cells) was stained with the DNA-specific dye SYBR green I for each measurement. Following 20 min incubation in the dark, the stained sample was analyzed by flow cytometry. For each flow cytometry measurement, approximately 100,000 events were analyzed. All samples were analyzed in triplicate, and three different experiments were performed and analyzed using GraphPad Prism 8 (Prism 4 for Mac OS X, version 5.0b, San Diego, CA, USA).

[1] = Ex vivo biodistribution, ratios infected/control mice; type: in vivo; conditions: suggested from brain radioactivity of the iodinated radiotracer
Protocol: Twenty-four hours after injection and immediately following SPECT/CT image acquisitions, anesthetized mice were euthanized using CO2, and tissue samples (brain, heart, stomach, liver, salivary glands, abdominal fat, small intestine, muscle, pancreas, lungs, spleen, kidneys, blood, thyroid, large intestine, genital tract) and urine were harvested. Samples were weighed, and their radioactivity was determined with a gamma counter (Wizard2, PerkinElmer, Courtaboeuf, France). Results were corrected for decay, injected dose, and organ weight and expressed as % ID/g because the bodyweight (BW) of mice was different between both groups (normal and infected).
Standard uptake values (SUVs) were also calculated ((tissue activity/gram of tissue)/ID × BW). Due to high activity detected in the animal blood, results were also expressed as a ratio between %ID in a gram of organ and %ID in a gram of blood (org/blood ratio). Then, to assess the effect of Toxoplasma infection on the biodistribution of the iodoJF363, the ratios of radioactivity (infected/noninfected) were calculated.

With COc1cccc(CC(=O)Nc2ccc(C(=O)NO)cc2)c1 [JF363] the “toxicity towards the hepatic host cells (cell confluency)” value (Huh7 cells) was “did not present toxicity”, the IC50 (P. falciparum NF54) was 230 ± 15 nM and the “blood–brain barrier permeability” value [1] was “suggests a permeability of the blood–brain barrier”.
